Test [1] has as its target T1, WRN C727 (Homo sapiens, UniProt Q14191).
T1 construct: endogenous in cells; host or cells: OCI-AML2
The experiment in a line: Target engagement, in vitro (lysate), OCI-AML2. The test is classed as binding. The settings on record: read-out: OCI-AML2 WRN C727 TE50 in vitro (lysate). The protocol: Cells or cell lysates were treated with a dose response of compound followed by probe treatment, which labels solvent exposed cysteines. Proteins were enzymatically digested with trypsin and probe-labelled peptides were enriched with streptavidin. Isolated peptides were then separated using reversed-phase liquid chromatography on a C18 column (Dionex Ultimated 3000 nano-LC, Thermo). Peptides were analyzed by parallel reaction monitoring mass spectrometry (Exploris 120, Thermo).
Target engagement (%) is calculated relative to DMSO treated control samples.

For test [2], the target named is hWRN(519-1227)_C-H3CV-GFP-10His (Homo sapiens, UniProt Q14191). The experiment in a line: Helicase Assay for WRN Inhibition (ATP-dependent, fluorescence based).
[3] abbreviates: WRN Helicase IC50, 30 min preincubation with ATP, 30 min reaction.

The structures appear in SMILES notation. Where two headings read alike, the source gives them in different places.

Chain of hWRN(519-1227)_C-H3CV-GFP-10His (Q14191 519-1227): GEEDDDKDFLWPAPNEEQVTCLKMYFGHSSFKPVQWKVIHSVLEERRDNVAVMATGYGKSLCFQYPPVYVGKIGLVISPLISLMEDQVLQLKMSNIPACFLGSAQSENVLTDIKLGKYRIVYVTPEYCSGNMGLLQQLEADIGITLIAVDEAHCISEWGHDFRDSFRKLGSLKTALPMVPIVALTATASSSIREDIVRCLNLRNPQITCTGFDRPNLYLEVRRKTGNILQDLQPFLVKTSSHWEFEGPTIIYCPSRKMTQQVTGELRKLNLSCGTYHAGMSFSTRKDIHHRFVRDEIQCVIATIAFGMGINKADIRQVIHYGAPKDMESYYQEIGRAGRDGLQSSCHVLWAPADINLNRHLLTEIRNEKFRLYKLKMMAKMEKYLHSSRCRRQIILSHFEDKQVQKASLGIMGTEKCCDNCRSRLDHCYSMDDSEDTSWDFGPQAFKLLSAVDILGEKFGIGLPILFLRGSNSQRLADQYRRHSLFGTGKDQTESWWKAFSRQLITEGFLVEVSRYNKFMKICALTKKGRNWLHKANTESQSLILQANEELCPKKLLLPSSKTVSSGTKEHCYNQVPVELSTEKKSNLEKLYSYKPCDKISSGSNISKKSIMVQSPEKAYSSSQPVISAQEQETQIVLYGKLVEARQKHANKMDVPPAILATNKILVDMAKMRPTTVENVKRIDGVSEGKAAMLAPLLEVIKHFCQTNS
T1 sequence (Q14191 whole entry): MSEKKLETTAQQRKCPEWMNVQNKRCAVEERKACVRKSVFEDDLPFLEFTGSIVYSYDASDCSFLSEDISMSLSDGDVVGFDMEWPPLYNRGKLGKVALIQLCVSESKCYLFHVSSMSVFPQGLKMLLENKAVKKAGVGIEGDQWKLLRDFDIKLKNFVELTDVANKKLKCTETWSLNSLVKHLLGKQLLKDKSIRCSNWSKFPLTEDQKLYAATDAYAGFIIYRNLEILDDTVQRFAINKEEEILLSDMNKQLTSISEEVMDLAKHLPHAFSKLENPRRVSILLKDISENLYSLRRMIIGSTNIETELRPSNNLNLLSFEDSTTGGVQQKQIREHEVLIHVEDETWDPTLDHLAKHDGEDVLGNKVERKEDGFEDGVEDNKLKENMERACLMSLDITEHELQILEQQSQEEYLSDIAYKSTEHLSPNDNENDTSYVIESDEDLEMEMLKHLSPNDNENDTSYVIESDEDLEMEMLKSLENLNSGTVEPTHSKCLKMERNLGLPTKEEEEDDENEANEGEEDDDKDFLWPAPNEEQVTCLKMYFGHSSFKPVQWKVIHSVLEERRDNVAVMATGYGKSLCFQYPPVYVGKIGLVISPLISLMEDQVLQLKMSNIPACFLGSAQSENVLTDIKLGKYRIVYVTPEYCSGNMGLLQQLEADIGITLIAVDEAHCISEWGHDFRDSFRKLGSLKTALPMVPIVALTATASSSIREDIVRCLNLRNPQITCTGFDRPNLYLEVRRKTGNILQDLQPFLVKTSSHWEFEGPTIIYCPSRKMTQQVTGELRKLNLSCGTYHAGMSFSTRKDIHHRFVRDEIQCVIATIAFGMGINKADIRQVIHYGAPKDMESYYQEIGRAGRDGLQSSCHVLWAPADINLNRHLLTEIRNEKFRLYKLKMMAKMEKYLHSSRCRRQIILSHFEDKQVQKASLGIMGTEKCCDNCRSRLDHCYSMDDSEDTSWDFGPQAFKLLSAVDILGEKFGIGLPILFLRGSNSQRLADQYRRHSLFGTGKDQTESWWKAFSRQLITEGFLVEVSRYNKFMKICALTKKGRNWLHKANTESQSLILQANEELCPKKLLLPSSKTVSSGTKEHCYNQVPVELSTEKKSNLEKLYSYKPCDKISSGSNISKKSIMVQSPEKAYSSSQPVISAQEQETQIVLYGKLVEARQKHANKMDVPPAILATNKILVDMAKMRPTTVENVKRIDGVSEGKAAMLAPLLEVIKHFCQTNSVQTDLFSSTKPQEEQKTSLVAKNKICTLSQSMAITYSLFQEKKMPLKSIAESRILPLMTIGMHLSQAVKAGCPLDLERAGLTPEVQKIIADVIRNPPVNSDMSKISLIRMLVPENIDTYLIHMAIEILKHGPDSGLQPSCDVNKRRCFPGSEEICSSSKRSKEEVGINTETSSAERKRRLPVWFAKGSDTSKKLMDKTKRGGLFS

As for `Cc1nc(C2CCCC2)nc(Oc2ccccc2)c1C(=O)N[C@@H](C)/C=C/S(C)(=O)=O` [Example 162, (S,E)-2-cyclopentyl-4-methyl-N-(4-(methylsulfonyl)but-3-en-2-yl)-6-phenoxypyrimidine-5-carboxamide], the IC50 in test [1] is more than 100 µM; in test [2] (setting [3]), 128 µM.
For `C[C@@H](/C=C/S(C)(=O)=O)NC(=O)c1cnc(C2CCCC2)nc1O[C@H]1CCCC[C@@H]1O` (single isomer, unassigned) [Example 131] the same measures were more than 100 µM and 24 µM.
As for `CC1CC[C@@H](C)N1c1ncc(C(=O)N[C@@H](C)/C=C/S(C)(=O)=O)c(Oc2ccccc2)n1` (stereo in doubt) [Example 172, 2-((2R,5S)-2,5-dimethylpyrrolidin-1-yl)-N—((S,E)-4-(methylsulfonyl)but-3-en-2-yl)-4-phenoxypyrimidine-5-carboxamide], the figures for the IC50 in test [1] and in test [2] (setting [3]) were 31.2 µM and 13 µM, respectively.
Consider `C[C@@H](/C=C/S(C)(=O)=O)NC(=O)c1cc2c(nc1Oc1ccccc1)CCC2` [Example 243, (S,E)-N-(4-(methylsulfonyl)but-3-en-2-yl)-2-phenoxy-6,7-dihydro-5H-cyclopenta[b]pyridine-3-carboxamide], for which the IC50 in test [1] was more than 100 µM; in test [2] (setting [3]), 43 µM.
`C[C@@H](/C=C/S(C)(=O)=O)NC(=O)c1cnc(CC2CCCCC2)nc1Oc1ccccc1` [Example 240, (S,E)-2-(cyclohexylmethyl)-N-(4-(methylsulfonyl)but-3-en-2-yl)-4-phenoxypyrimidine-5-carboxamide]: the IC50 in test [1] was more than 100 µM; in test [2] (setting [3]) it was 67 µM.
On to `C[C@@H](/C=C/S(C)(=O)=O)NC(=O)c1cnc(C2CCOC2)nc1Oc1ccccc1` (stereo partly drawn) [Example 79, N—((S,E)-4-(methylsulfonyl)but-3-en-2-yl)-4-phenoxy-2-(tetrahydrofuran-3-yl)pyrimidine-5-carboxamide], for which the values for the IC50 in test [1] and in test [2] (setting [3]) were more than 100 µM and 18 µM, respectively.
Take `C[C@@H](/C=C/S(C)(=O)=O)NC(=O)c1cnc(C2CC2)nc1OCC1CC1` [Example 150, (S,E)-2-cyclopropyl-4-(cyclopropylmethoxy)-N-(4-(methylsulfonyl)but-3-en-2-yl)pyrimidine-5-carboxamide]: the IC50 in test [1] is more than 100 µM; in test [2] (setting [3]), 43 µM.
Compound `CS(=O)(=O)/C=C/CNC(=O)c1ccc(C2CCCC2)cc1OC1CCCC1` [Example 198, (E)-4-cyclopentyl-2-(cyclopentyloxy)-N-(3-(methylsulfonyl)allyl)benzamide] returned an IC50 in test [2] (setting [3]) of 27 µM.
In the case of `Cc1ccc(Oc2nc(C3CCCC3)ncc2C(=O)N[C@@H](C)/C=C/S(C)(=O)=O)cc1C` [Example 109, (S,E)-2-cyclopentyl-4-(3,4-dimethylphenoxy)-N-(4-(methylsulfonyl)but-3-en-2-yl)pyrimidine-5-carboxamide], the IC50 in test [1] was more than 100 µM; in test [2] (setting [3]), 183 µM.
For `C[C@@H](/C=C/S(C)(=O)=O)NC(=O)c1cnc(C2CC2)c2c1OC1(CCCC1)C2` [Example 259, (S,E)-4′-cyclopropyl-N-(4-(methylsulfonyl)but-3-en-2-yl)-3′H-spiro[cyclopentane-1,2′-furo[3,2-c]pyridine]-7′-carboxamide], the IC50 in test [1] came out at 0.12 µM; in test [2] it was 7 µM.
Regarding `C[C@@H](/C=C/S(C)(=O)=O)NC(=O)c1cnc(C2CC2)nc1OC1CC2(CC2)C1` [Example 142, (S,E)-2-cyclopropyl-N-(4-(methylsulfonyl)but-3-en-2-yl)-4-(spiro[2.3]hexan-5-yloxy)pyrimidine-5-carboxamide], the figures for the IC50 in test [1] and in test [2] (setting [3]) were 50 µM and 20 µM, respectively.
Take `CC(C)(C)c1ncc(C(=O)NC/C=C/S(C)(=O)=O)c(O[C@H]2C[C@@H]3C[C@@H]3C2)n1` [Example 145, 4-(((1R,3s,5S)-bicyclo[3.1.0]hexan-3-yl)oxy)-2-(tert-butyl)-N—((E)-3-(methylsulfonyl)allyl)pyrimidine-5-carboxamide]: the IC50 was more than 100 µM in test [1] and 59 µM in test [2] (read-out: WRN Helicase IC50, 30 min preincubation with ATP, 30 min reaction).
In the case of `C[C@@H](/C=C/S(C)(=O)=O)NC(=O)c1cnc(C2=CCCOC2)nc1Oc1ccccc1` [Example 211, (S,E)-2-(5,6-dihydro-2H-pyran-3-yl)-N-(4-(methylsulfonyl)but-3-en-2-yl)-4-phenoxypyrimidine-5-carboxamide], the IC50 in test [1] is more than 100 µM; in test [2] (setting [3]) it was 51 µM.
For `CS(=O)(=O)/C=C/[C@@H](NC(=O)c1cc2c(nc1Oc1ccccc1)C(F)(F)CC2)C1CC1` [Example 237, (S,E)-N-(1-cyclopropyl-3-(methylsulfonyl)allyl)-7,7-difluoro-2-phenoxy-6,7-dihydro-5H-cyclopenta[b]pyridine-3-carboxamide] the same measures were 0.5 µM and 17 µM.
`Cc1ccccc1Oc1nc(C2CCCC2)ncc1C(=O)N[C@@H](C)/C=C/S(C)(=O)=O` [Example 106, (S,E)-2-cyclopentyl-N-(4-(methylsulfonyl)but-3-en-2-yl)-4-(o-tolyloxy)pyrimidine-5-carboxamide]: the figures for the IC50 in test [1] and in test [2] (setting [3]) were more than 100 µM and 24 µM, respectively.
For `C[C@@H](/C=C/S(C)(=O)=O)NC(=O)c1cnc(C2CCCC2)nc1Oc1ccc(O)cc1` [Example 135, (S,E)-2-cyclopentyl-4-(4-hydroxyphenoxy)-N-(4-(methylsulfonyl)but-3-en-2-yl)pyrimidine-5-carboxamide] the same measures were 75 µM and 70 µM.
Turning to `C[C@@H](/C=C/S(C)(=O)=O)NC(=O)c1cnc(C2CCCC2)nc1Oc1ccccn1` [Example 126, (S,E)-2-cyclopentyl-N-(4-(methylsulfonyl)but-3-en-2-yl)-4-(pyridin-2-yloxy)pyrimidine-5-carboxamide], the values for the IC50 in test [1] and in test [2] (setting [3]) were more than 100 µM and 44.4 µM, respectively.
For `C[C@@H](/C=C/S(C)(=O)=O)NC(=O)c1cnc(C2CCCC2)nc1Oc1cccc(N)c1` [Example 138, (S,E)-4-(3-aminophenoxy)-2-cyclopentyl-N-(4-(methylsulfonyl)but-3-en-2-yl)pyrimidine-5-carboxamide] the same measures were more than 100 µM and 19 µM.
On to `C[C@@H](/C=C/S(C)(=O)=O)NC(=O)c1cnc(C2CC2)nc1OC1CC2(CCC2)C1` [Example 141, (S,E)-2-cyclopropyl-N-(4-(methylsulfonyl)but-3-en-2-yl)-4-(spiro[3.3]heptan-2-yloxy)pyrimidine-5-carboxamide], for which the IC50 was more than 100 µM in test [1] and 118 µM in test [2] (setting [3]).
The compound `CC1(C)Cc2cc(Oc3ccccc3)c(C(=O)N3CC(=CS(C)(=O)=O)C3)cc2C1=O` [Example 249, 2,2-dimethyl-6-(3-((methylsulfonyl)methylene)azetidine-1-carbonyl)-5-phenoxy-2,3-dihydro-1H-inden-1-one] showed an IC50 in test [2] of 39 µM.
Compound `N#C/C=C/CNC(=O)c1cnc(C2CC2)nc1Oc1ccccc1` [Example 266, (E)-N-(3-cyanoallyl)-2-cyclopropyl-4-phenoxypyrimidine-5-carboxamide] yielded an IC50 in test [2] (setting [3]) of 116 µM.
On the same count and under the same terms, as for `Cn1cnc2cc(C(=O)N[C@H](/C=C/S(C)(=O)=O)C3CC3)c(Oc3ccccc3)nc21` [Example 251, (S,E)-N-(1-cyclopropyl-3-(methylsulfonyl)allyl)-3-methyl-5-phenoxy-3H-imidazo[4,5-b]pyridine-6-carboxamide], the figure is 103 µM.
`O=C(NC1C=CS(=O)(=O)C1)c1cnc(C2CC2)nc1Oc1ccccc1` (stereo not drawn) [Example 27, 2-cyclopropyl-N-(1,1-dioxido-2,3-dihydrothiophen-3-yl)-4-phenoxypyrimidine-5-carboxamide] had an IC50 in test [2] of 34 µM.
On to `N#C/C=C\CNC(=O)c1cnc(C2CC2)nc1Oc1ccccc1` [Example 267, (Z)—N-(3-cyanoallyl)-2-cyclopropyl-4-phenoxypyrimidine-5-carboxamide], for which, in test [2] (setting [3]), the IC50 is 29 µM.
`C[C@@H](/C=C/S(C)(=O)=O)NC(=O)c1cnc(C2CC2)nc1OC1CCC(F)(F)C1` (stereo partly drawn) [Example 146, 2-cyclopropyl-4-((3,3-difluorocyclopentyl)oxy)-N—((S,E)-4-(methylsulfonyl)but-3-en-2-yl)pyrimidine-5-carboxamide] showed an IC50 in test [2] (setting [3]) of 53 µM.
Take `C[C@@H](/C=C/S(C)(=O)=O)NC(=O)c1ccc(C2CCCC2)c2cccnc12` [Example 203, (S,E)-5-cyclopentyl-N-(4-(methylsulfonyl)but-3-en-2-yl)quinoline-8-carboxamide]: the IC50 in test [2] came out at 77 µM.
The compound `COC1CN(c2ncc(C(=O)N[C@@H](C)/C=C/S(C)(=O)=O)c(Oc3ccccc3)n2)C1` [Example 169, (S,E)-2-(3-methoxyazetidin-1-yl)-N-(4-(methylsulfonyl)but-3-en-2-yl)-4-phenoxypyrimidine-5-carboxamide] displayed an IC50 in test [2] (setting [3]) of 110 µM.
Still for that read-out and setting: the value for `CS(=O)(=O)/C=C/CNC(=O)c1ccc(C2CCCC2)cc1OC1CC1` [Example 283, (E)-4-cyclopentyl-2-cyclopropoxy-N-(3-(methylsulfonyl)allyl)benzamide] was 64 µM.
In test [2], `C[C@@H](/C=C/S(C)(=O)=O)NC(=O)c1cc2c(cc1Oc1ccccc1)CC(C)(C)C2=O` [Example 248, (S,E)-2,2-dimethyl-N-(4-(methylsulfonyl)but-3-en-2-yl)-3-oxo-6-phenoxy-2,3-dihydro-1H-indene-5-carboxamide] showed an IC50 of 63 µM.
Take `Cc1c(C2CC2)ncc(C(=O)N[C@@H](C)/C=C/S(C)(=O)=O)c1Oc1ccccc1` [Example 204, (S,E)-6-cyclopropyl-5-methyl-N-(4-(methylsulfonyl)but-3-en-2-yl)-4-phenoxynicotinamide]: the IC50 in test [2] (setting [3]) is 96 µM.
